According to patent EP4029501A1, “COMBINATION OF POLYAROMATIC UREA DERIVATIVES AND GLUCOCORTICOID OR HDAC INHIBITOR FOR THE TREATMENT OF DISEASES OR CONDITIONS ASSOCIATED WITH MUSCLE CELLS AND/OR SATELLITE CELLS” (Anagenesis Biotechnologies, priority 2021, dated 2022):

Experiments:
Assay type in all cases: cell-based, human
[1] = tested on: Pax7 positive cells; experiment: Dose response assay of combination treatments with Givinostat or Prednisolone: percentage of Pax7-positive cells; settings: for drop of satellite cells content: compound alone at 0.3 µM, DMD hMPs (figure 6); for loss of Pax7 positive cells: compound alone, dose-dependent, highest concentration 10 µM (Figure 6 legend)
From the text: (§1) • Figure 1 - the workflow of the myotube assay, aiming at monitoring myogenic activity of compounds and effect on satellite-like cells. • Figure 2 - the myogenic activity of compound (i) in a dose-response assay, as shown by an increase of the total myotube surface/well upon increase of compound concentration. • Figure 3 - the positive effect on satellite-like cells of compound (i) in a dose-response assay, as shown by the increase of Pax7-positive cell percentage upon increase of compound concentration. • Figure 4 - representative images for the dose-response of the total myotube area readout for compound (i), corresponding to Figure 2. • Figure 5 - representative images for the dose-response of the percentage of Pax7-positive cell readout for compound (i), corresponding to Figure 3. • Figure 6 - Dose-response curve on muscle progenitors derived from DMD hiPSC. Treatment of muscle progenitors derived from DMD hiPSC with Prednisolone or Givinostat alone inducing a beneficial effect on α-actinin expression (representative of the myotube surface) and a loss of nearly 50 % of Pax7 positive cells (representative of the population of satellite cells) in a dose-dependent manner. The highest concentration represented is 10 µM. The arrows show the point a 0.3 µM. Efficacy values correspond to the highest score of normalized myotube surface (y-axis). Activity values correspond to the half maximal effective concentration (EC50; x-axis). The curve fits were calculated using a 4-parameter logistic regression model (Graphpad PRISM software). Error bars show standard deviation (SD). The picture on the right panel is representative of the highest myotube surface value of the dose-response curve. • Figures 7-9 - Dose-response curve on muscle progenitors derived from DMD hiPSC. Treatment in a dose-dependent manner of muscle progenitors derived from DMD hiPSC with indicated compound alone or with combination with Prednisolone or Givinostat at 0.3 µM. The combination induced an improvement of myogenic capabilities seen with α-actinin expression (representative of the myotube surface) and harbor no worsening of the Pax7 positive cells (representative of the population of satellite cells) compared to Prednisolone or Givinostat alone. The highest concentration of DRC is 10 µM.
(§2) Figure 1 provides an example of a Myotube assay workflow. At day 0, hMP are thawed and 3.1 million cells are plated into a T75-flask coated with hESC-qualified Matrigel™ (Corning) in SkGM proliferating medium (PromoCells), supplemented with 5 µM Y-27632 (Tocris Bioscience). On day 2, SkGM proliferating medium is refreshed. On day 4, hMP are harvested and transferred into a 384-well plate coated with collagen type I at a density of 3500 cells/well in a DMEM-based medium, containing 5% of knockout serum replacement (Gibco), 1% PenStrep (Gibco), 1% MEM NEAA (Gibco) and 0.1 mM 2-mercaptoethanol (Gibco) (hereafter "K5 medium") and 5 µM Y-27632. Compounds to be tested are then added in the medium and incubated for 3 days at 37°C. On day 7, cells are fixed and immunostained. For example, myotubes (alpha-actinin staining) and satellite-like (Pax7 staining) cells can be analyzed for total myotube area per well or Pax7-positive cell quantification.
DMD hMPs were put in the Myotube assay according to the workflow described in example 2.1. In particular, Prednisolone (Sigma) or Givinostat (Exclusive Chemistry) were added in all conditions at a fixed concentration equal to 0.3 µM in combination with compounds az or bw or q tested in DRC at 8 concentrations ranging from 4.5 nM to 10 µM, starting from day 4. Also, as control, DRCs with the same range of concentrations were done with Prednisolone alone, Givinostat (figure 6) alone or compounds az or bw or q alone (figures 7 to 9). […]

[2] = tested on: muscle progenitors derived from DMD hiPSC; experiment: Dose response assay of combination treatments with Givinostat or Prednisolone: total myotube area; settings: for EC50: Homo sapiens, Myotube, compound alone, DRC 4.5 nM to 10 µM, DMD hMPs (figure 6), read-out: potency (EC50) on myotube surface; for improvement of potency: versus alone
From the text: as §1
Efficacy values correspond to the highest score of normalized myotube surface (y-axis). Activity values correspond to the half maximal effective concentration (EC50; x-axis). The curve fits were calculated using a 4-parameter logistic regression model (Graphpad PRISM software). Error bars show standard deviation (SD). The picture on the right panel is representative of the highest myotube surface value of the dose-response curve.
as §2
DMD hMPs were put in the Myotube assay according to the workflow described in example 2.1. […]

[3] = tested on: muscle progenitors derived from DMD hiPSC; experiment: Myotube assay: total myotube area per well (alpha-actinin staining); settings: Homo sapiens, Myotube, 72 h, DMD or WT cell source not given; for Emax: efficacy, MA = normalized Myotube Area, 3 days incubation; for EC50: myogenic activity, half-maximal generation of myotubes, 10 points dose-response 1.5 nM to 30 µM, 3 days
In short: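 DMD hiPSC-derived muscle progenitors (NCRM-1 background) plated at 3500 cells/well in K5 medium with 5 µM Y-27632, then exposed to compound at 1.5 nM–30 µM for 3 days at 37°C. Cells fixed on day 7, alpha-actinin-immunostained and total myotube area per well quantified; duplicates averaged, EC50 and normalized myotube area derived.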

[4] = in combination with Givinostat at 0.3 µM
[5] = in combination with Prednisolone at 0.3 µM

Structure (SMILES) | EC50 [3] | Emax [3] | other results
C[C@]12C=CC(=O)C=C1CC[C@@H]1[C@@H]2[C@@H](O)C[C@@]2(C)[C@H]1CC[C@]2(O)C(=O)CO [Prednisolone, reference compound] | – | – | drop of satellite cells content [1]: about 50%; loss of Pax7 positive cells [1]: ~50%; EC50 [2]: ≤ 170 nM
Cc1ccc(-n2nc(C(C)(C)C)cc2NC(=O)Nc2ccc(Oc3ccnc4[nH]c(=O)cnc34)cc2C(F)(F)F)cc1 [(az), 1-(3-(tert-butyl)-1-(p-tolyl)-1H-pyrazol-5-yl)-3-(4-((3-oxo-3,4-dihydropyrido[2,3-b]pyrazin-8-yl)oxy)-2-(trifluoromethyl)phenyl)urea] | 500 to 1000 nM | ≥ 75% | satellite cell population [1, 4]: at least maintained; satellite cell population increase [1, 5]: 1.5 fold; total myotube surface ([2]; DRC 4.5 nM to 10 µM in combination with Givinostat at 0.3 µM): increased the total myotube surface; total myotube surface ([2]; DRC 4.5 nM to 10 µM in combination with Prednisolone at 0.3 µM): increased the total myotube surface; improvement of potency [2, 4]: two fold; improvement of potency [2, 5]: two fold
CCN(CC)Cc1ccc2cc(COC(=O)Nc3ccc(C(=O)NO)cc3)ccc2c1 [Givinostat, reference compound] | – | – | drop of satellite cells content [1]: about 50%; loss of Pax7 positive cells [1]: ~50%; EC50 [2]: ≤ 170 nM
CSc1cc(Oc2ccnc3[nH]c(=O)cnc23)ccc1NC(=O)Nc1cc(C(C)(C)C)nn1-c1ccccn1 [(ar), 1-(3-(tert-butyl)-1-(pyridin-2-yl)-1H-pyrazol-5-yl)-3-(2-(methylthio)-4-((3-oxo-3,4-dihydropyrido[2,3-b]pyrazin-8-yl)oxy)phenyl)urea] | ≥ 5000 nM | ≥ 75% | –
CSc1cc(Oc2ccnc(NC(=O)OCc3ccccc3)c2)ccc1NC(=O)Nc1cc(C(C)(C)C)nn1-c1ccccc1 [(cx), benzyl (4-(4-(3-(3-(tert-butyl)-1-phenyl-1H-pyrazol-5-yl)ureido)-3-(methylthio)phenoxy)pyridin-2-yl)carbamate] | 500 to 1000 nM | ≥ 75% | –
CC(C)(C)c1cc(NC(=O)Nc2ccc(Oc3ccnc4[nH]c(=O)cnc34)cc2Cl)n(-c2ccccc2)n1 [(ak), 1-(3-(tert-butyl)-1-phenyl-1H-pyrazol-5-yl)-3-(2-chloro-4-((3-oxo-3,4-dihydropyrido[2,3-b]pyrazin-8-yl)oxy)phenyl)urea] | ≥ 5000 nM | ≥ 75% | –
CSc1cc(Oc2ccnc(N(CCN(C)C)C(=O)OC(C)(C)C)c2)ccc1NC(=O)Nc1cc(C(C)(C)C)nn1-c1ccccc1 [(ch), tert-butyl (4-(4-(3-(3-(tert-butyl)-1-phenyl-1H-pyrazol-5-yl)ureido)-3-(methylthio)phenoxy)pyridin-2-yl)(2-(dimethylamino)ethyl)carbamate] | ≥ 5000 nM | 50 to 75% | –
CC(C)(C)c1cc(NC(=O)Nc2cc(F)c(Oc3ccnc4[nH]c(=O)cnc34)cc2F)n(-c2ccccc2)n1 [(bt), 1-(3-(tert-butyl)-1-phenyl-1 H-pyrazol-5-yl)-3-(2,5-difluoro-4-((3-oxo-3,4-dihydropyrido[2,3-b]pyrazin-8-yl)oxy)phenyl)urea] | 500 to 1000 nM | ≥ 75% | –
CSc1cc(Oc2ccnc3[nH]c(=O)cnc23)ccc1NC(=O)Nc1ncc(C(C)(C)C)s1 [(ah), 1-(5-(tert-butyl)thiazol-2-yl)-3-(2-(methylthio)-4-((3-oxo-3,4-dihydropyrido[2,3-b]pyrazin-8-yl)oxy)phenyl)urea] | ≥ 5000 nM | ≥ 75% | –
COc1ccccc1-n1nc(C(C)(C)C)cc1NC(=O)Nc1ccc(Oc2ccnc3[nH]c(=O)cnc23)cc1SC [(av), 1-(3-(tert-butyl)-1-(2-methoxyphenyl)-1H-pyrazol-5-yl)-3-(2-(methylthio)-4-((3-oxo-3,4-dihydropyrido[2,3-b]pyrazin-8-yl)oxy)phenyl)urea] | – | ≥ 75% | –
CC(C)(C)c1cc(NC(=O)Nc2ccc(Oc3ccnc4[nH]c(=O)cnc34)c3ccccc23)n(-c2ccc3ncccc3c2)n1 [(bb), 1-(3-(tert-butyl)-1-(quinolin-6-yl)-1 H-pyrazol-5-yl)-3-(4-((3-oxo-3,4-dihydropyrido[2,3-b]pyrazin-8-yl)oxy)naphthalen-1-yl)urea] | < 500 nM | ≥ 75% | –
CSc1cc(Oc2ccnc(NC(=O)CN(C)C(=O)OC(C)(C)C)c2)ccc1NC(=O)Nc1cc(C(C)(C)C)nn1-c1ccccc1 [(bp), tert-butyl (2-((4-(4-(3-(3-(tert-butyl)-1-phenyl-1H-pyrazol-5-yl)ureido)-3-(methylthio)phenoxy)pyridin-2-yl)amino)-2-oxoethyl)(methyl)carbamate] | < 500 nM | ≥ 75% | –
CSc1cc(Oc2ccnc3[nH]c(=O)cnc23)ccc1NC(=O)Nc1cc(C(C)(C)C)nn1-c1ccc(C)nc1 [(bd), 1-(3-(tert-butyl)-1-(6-methylpyridin-3-yl)-1 H-pyrazol-5-yl)-3-(2-(methylthio)-4-((3-oxo-3,4-dihydropyrido[2,3-b]pyrazin-8-yl)oxy)phenyl)urea] | < 500 nM | ≥ 75% | –
CC(C)(C)c1cc(NC(=O)Nc2ccc(Oc3ccnc4[nH]c(=O)cnc34)c(F)c2F)n(-c2ccccc2)n1 [(bo), 1-(3-(tert-butyl)-1-phenyl-1 H-pyrazol-5-yl)-3-(2,3-difluoro-4-((3-oxo-3,4-dihydropyrido[2,3-b]pyrazin-8-yl)oxy)phenyl)urea] | < 500 nM | ≥ 75% | –

Now from value to compound, other results behind:

EC50 [3] | Structure (SMILES) | Emax [3] | other results
≥ 5000 nM | O=C(Nc1ccc(Oc2ccnc3[nH]c(=O)cnc23)cc1F)Nc1c2c(nn1-c1ccccc1)CCC2 [(x), 1-(2-fluoro-4-((3-oxo-3,4-dihydropyrido[2,3-b]pyrazin-8-yl)oxy)phenyl)-3-(2-phenyl-2,4,5,6-tetrahydrocyclopenta[c]pyrazol-3-yl)urea] | 25 to 50% | –
≥ 5000 nM | CC(=O)n1nc(C(C)(C)C)cc1NC(=O)Nc1ccc(Oc2ccnc3[nH]c(=O)cnc23)cc1F [(o), 1-(1-acetyl-3-(tert-butyl)-1 H-pyrazol-5-yl)-3-(2-fluoro-4-((3-oxo-3,4-dihydropyrido[2,3-b]pyrazin-8-yl)oxy)phenyl)urea] | 25 to 50% | –
< 500 nM | CSc1cc(Oc2ccnc3[nH]c(=O)cnc23)ccc1NC(=O)Nc1cc(C(C)(C)C)nn1-c1ccc(CN(C)C)cc1 [(dp), 1-(3-(tert-butyl)-1-(4-((dimethylamino)methyl)phenyl)-1H-pyrazol-5-yl)-3-(2-(methylthio)-4-((3-oxo-3,4-dihydropyrido[2,3-b]pyrazin-8-yl)oxy)phenyl)urea] | ≥ 75% | –
< 500 nM | CC(C)(C)c1cc(NC(=O)Nc2ccc(Oc3ccnc4c3CCC(=O)N4)c3ccccc23)on1 [(dg), 1-(3-(tert-butyl)isoxazol-5-yl)-3-(4-((7-oxo-5,6,7,8-tetrahydro-1,8-naphthyridin-4-yl)oxy)naphthalen-1-yl)urea] | ≥ 75% | –
